Experimental data reported in PubChem BioAssay (NCI).
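Interpolation was linear, between the two tested concentrations surrounding the appropriate level; five concentrations were tested over 48 hours in 96-well plates. TGI marks complete inhibition of growth.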

These compounds were tested on SF-268 CNS (assay: NCI-60 cell line screen, 48 h).

Row | SMILES | TGI [µM]
1 | CCc1nc(N)nc(N)c1-c1ccc2nn(-c3ccccc3)[n+]([O-])c2c1 | 31.5
2 | O=C(O)/C=N\Nc1nc2ccccc2[nH]1 | > 100
3 | CC(=O)OCCn1cnc2nc(Nc3ccccc3)nc(Cl)c21 | > 100
4 | Nc1nc(N)c2[nH]c(CNc3ccc(C(=O)O)cc3)nc2n1 | > 100
5 | CCC1(CC)SCc2nc3ccccc3n21 | > 100
6 | C[C@]12CC[C@H](O)CC1=CC[C@@H]1[C@@H]2CC[C@]2(C)C(=O)[C@@H](N3CCOCC3)C[C@@H]12 | > 100
7 | CNn1c(-c2ccccc2)n[nH]c1=O | > 100
8 | COc1ccc(CC2c3cc(Oc4cc(CC5c6cc(OC)c(OC)cc6CCN5C)ccc4O)c(OC)cc3CCN2C)cc1 (stereo not given) | 17
9 | COc1ccc(C(C)NNC(=O)c2ccncc2)c(OC)c1 (stereo not given) | > 100
10 | CC(C)(C)OC(=O)NCC(O)CNC(=O)OC(C)(C)C | > 100
11 | O=[N+]([O-])c1cc2oc(COc3ccccc3)nc2cc1Cl | > 100
12 | Cc1ccc(S(=O)(=O)N/N=C/C(=C/c2ccc(Cl)cc2)CC(/C=N/NS(=O)(=O)c2ccc(C)cc2)=C\c2ccc(Cl)cc2)cc1 | 55.2
13 | CC(C)(C)c1cc(C(P(=O)(c2ccccc2)c2ccccc2)P(=O)(c2ccccc2)c2ccccc2)cc(C(C)(C)C)c1O | > 9.47
14 | CC(C)(C)C(=O)OCC1CCC[N+]2(C)CCCCC12 (stereo not given) | > 100
15 | NS(=O)(=O)c1nn2c(Br)c(-c3ccccc3)nc2s1 | 30.9
16 | CCN(CC)c1c(N(CC)CC)c(=O)c1=O | > 77
17 | CN(C)Cc1cc(C(=O)/C=C/c2ccc(Cl)cc2)cc(CN(C)C)c1O | 71.1
18 | O=[N+]([O-])c1ccc(Cl)c(C=NC23CC4CC(CC(C4)C2)C3)c1 | > 10

These compounds were tested on SK-MEL-5 melanoma (assay: NCI-60 cell line screen, 48 h).

Row | SMILES | TGI [µM]
19 | CCc1nc(N)nc(N)c1-c1ccc2nn(-c3ccccc3)[n+]([O-])c2c1 | 19.6
20 | O=C(O)/C=N\Nc1nc2ccccc2[nH]1 | > 100
21 | CC(=O)OCCn1cnc2nc(Nc3ccccc3)nc(Cl)c21 | > 100
22 | Nc1nc(N)c2[nH]c(CNc3ccc(C(=O)O)cc3)nc2n1 | > 100
23 | CCC1(CC)SCc2nc3ccccc3n21 | 36.5
24 | C[C@]12CC[C@H](O)CC1=CC[C@@H]1[C@@H]2CC[C@]2(C)C(=O)[C@@H](N3CCOCC3)C[C@@H]12 | > 100
25 | CNn1c(-c2ccccc2)n[nH]c1=O | > 100
26 | COc1ccc(CC2c3cc(Oc4cc(CC5c6cc(OC)c(OC)cc6CCN5C)ccc4O)c(OC)cc3CCN2C)cc1 (stereo not given) | 14.4
27 | COc1ccc(C(C)NNC(=O)c2ccncc2)c(OC)c1 (stereo not given) | > 100
28 | CC(C)(C)OC(=O)NCC(O)CNC(=O)OC(C)(C)C | > 100
29 | O=[N+]([O-])c1cc2oc(COc3ccccc3)nc2cc1Cl | 25.5
30 | Cc1ccc(S(=O)(=O)N/N=C/C(=C/c2ccc(Cl)cc2)CC(/C=N/NS(=O)(=O)c2ccc(C)cc2)=C\c2ccc(Cl)cc2)cc1 | 13.9
31 | CC(C)(C)c1cc(C(P(=O)(c2ccccc2)c2ccccc2)P(=O)(c2ccccc2)c2ccccc2)cc(C(C)(C)C)c1O | 2.94
32 | CC(C)(C)C(=O)OCC1CCC[N+]2(C)CCCCC12 (stereo not given) | > 100
33 | NS(=O)(=O)c1nn2c(Br)c(-c3ccccc3)nc2s1 | 6.48
34 | CCN(CC)c1c(N(CC)CC)c(=O)c1=O | 35.2
35 | CN(C)Cc1cc(C(=O)/C=C/c2ccc(Cl)cc2)cc(CN(C)C)c1O | 27.6
36 | O=[N+]([O-])c1ccc(Cl)c(C=NC23CC4CC(CC(C4)C2)C3)c1 | > 10

What follows are compounds tested on MOLT-4 leukemia (assay: NCI-60 cell line screen, 48 h).

Row | SMILES | TGI [µM]
37 | CCc1nc(N)nc(N)c1-c1ccc2nn(-c3ccccc3)[n+]([O-])c2c1 | 32.5
38 | O=C(O)/C=N\Nc1nc2ccccc2[nH]1 | > 100
39 | CC(=O)OCCn1cnc2nc(Nc3ccccc3)nc(Cl)c21 | > 100
40 | Nc1nc(N)c2[nH]c(CNc3ccc(C(=O)O)cc3)nc2n1 | > 100
41 | CCC1(CC)SCc2nc3ccccc3n21 | 84.3
42 | C[C@]12CC[C@H](O)CC1=CC[C@@H]1[C@@H]2CC[C@]2(C)C(=O)[C@@H](N3CCOCC3)C[C@@H]12 | > 100
43 | CNn1c(-c2ccccc2)n[nH]c1=O | > 100
44 | COc1ccc(CC2c3cc(Oc4cc(CC5c6cc(OC)c(OC)cc6CCN5C)ccc4O)c(OC)cc3CCN2C)cc1 (stereo not given) | 12.9
45 | COc1ccc(C(C)NNC(=O)c2ccncc2)c(OC)c1 (stereo not given) | > 100
46 | CC(C)(C)OC(=O)NCC(O)CNC(=O)OC(C)(C)C | > 100
47 | O=[N+]([O-])c1cc2oc(COc3ccccc3)nc2cc1Cl | > 100
48 | Cc1ccc(S(=O)(=O)N/N=C/C(=C/c2ccc(Cl)cc2)CC(/C=N/NS(=O)(=O)c2ccc(C)cc2)=C\c2ccc(Cl)cc2)cc1 | 6.62
49 | CC(C)(C)c1cc(C(P(=O)(c2ccccc2)c2ccccc2)P(=O)(c2ccccc2)c2ccccc2)cc(C(C)(C)C)c1O | > 8.09
50 | CC(C)(C)C(=O)OCC1CCC[N+]2(C)CCCCC12 (stereo not given) | > 100
51 | NS(=O)(=O)c1nn2c(Br)c(-c3ccccc3)nc2s1 | 5.67
52 | CCN(CC)c1c(N(CC)CC)c(=O)c1=O | 16.4
53 | CN(C)Cc1cc(C(=O)/C=C/c2ccc(Cl)cc2)cc(CN(C)C)c1O | 49.9
54 | O=[N+]([O-])c1ccc(Cl)c(C=NC23CC4CC(CC(C4)C2)C3)c1 | > 10

The compounds below were run on 786-0 renal (assay: NCI-60 cell line screen, 48 h).

Row | SMILES | TGI [µM]
55 | CCc1nc(N)nc(N)c1-c1ccc2nn(-c3ccccc3)[n+]([O-])c2c1 | 18.9
56 | O=C(O)/C=N\Nc1nc2ccccc2[nH]1 | > 100
57 | CC(=O)OCCn1cnc2nc(Nc3ccccc3)nc(Cl)c21 | > 100
58 | Nc1nc(N)c2[nH]c(CNc3ccc(C(=O)O)cc3)nc2n1 | > 100
59 | CCC1(CC)SCc2nc3ccccc3n21 | > 100
60 | C[C@]12CC[C@H](O)CC1=CC[C@@H]1[C@@H]2CC[C@]2(C)C(=O)[C@@H](N3CCOCC3)C[C@@H]12 | > 100
61 | CNn1c(-c2ccccc2)n[nH]c1=O | > 100
62 | COc1ccc(CC2c3cc(Oc4cc(CC5c6cc(OC)c(OC)cc6CCN5C)ccc4O)c(OC)cc3CCN2C)cc1 (stereo not given) | 9.33
63 | COc1ccc(C(C)NNC(=O)c2ccncc2)c(OC)c1 (stereo not given) | > 100
64 | CC(C)(C)OC(=O)NCC(O)CNC(=O)OC(C)(C)C | > 100
65 | O=[N+]([O-])c1cc2oc(COc3ccccc3)nc2cc1Cl | > 100
66 | Cc1ccc(S(=O)(=O)N/N=C/C(=C/c2ccc(Cl)cc2)CC(/C=N/NS(=O)(=O)c2ccc(C)cc2)=C\c2ccc(Cl)cc2)cc1 | 4.38
67 | CC(C)(C)c1cc(C(P(=O)(c2ccccc2)c2ccccc2)P(=O)(c2ccccc2)c2ccccc2)cc(C(C)(C)C)c1O | 7.23
68 | CC(C)(C)C(=O)OCC1CCC[N+]2(C)CCCCC12 (stereo not given) | > 100
69 | NS(=O)(=O)c1nn2c(Br)c(-c3ccccc3)nc2s1 | 9.34
70 | CCN(CC)c1c(N(CC)CC)c(=O)c1=O | 16.2
71 | CN(C)Cc1cc(C(=O)/C=C/c2ccc(Cl)cc2)cc(CN(C)C)c1O | 20.2
72 | O=[N+]([O-])c1ccc(Cl)c(C=NC23CC4CC(CC(C4)C2)C3)c1 | > 10

What follows are compounds tested on MCF7 breast (assay: NCI-60 cell line screen, 48 h).

Row | SMILES | TGI [µM]
73 | CCc1nc(N)nc(N)c1-c1ccc2nn(-c3ccccc3)[n+]([O-])c2c1 | 20.8
74 | O=C(O)/C=N\Nc1nc2ccccc2[nH]1 | > 100
75 | CC(=O)OCCn1cnc2nc(Nc3ccccc3)nc(Cl)c21 | > 100
76 | Nc1nc(N)c2[nH]c(CNc3ccc(C(=O)O)cc3)nc2n1 | > 100
77 | CCC1(CC)SCc2nc3ccccc3n21 | 93.7
78 | C[C@]12CC[C@H](O)CC1=CC[C@@H]1[C@@H]2CC[C@]2(C)C(=O)[C@@H](N3CCOCC3)C[C@@H]12 | > 100
79 | CNn1c(-c2ccccc2)n[nH]c1=O | > 100
80 | COc1ccc(CC2c3cc(Oc4cc(CC5c6cc(OC)c(OC)cc6CCN5C)ccc4O)c(OC)cc3CCN2C)cc1 (stereo not given) | 12.2
81 | COc1ccc(C(C)NNC(=O)c2ccncc2)c(OC)c1 (stereo not given) | > 100
82 | CC(C)(C)OC(=O)NCC(O)CNC(=O)OC(C)(C)C | > 100
83 | O=[N+]([O-])c1cc2oc(COc3ccccc3)nc2cc1Cl | > 100
84 | Cc1ccc(S(=O)(=O)N/N=C/C(=C/c2ccc(Cl)cc2)CC(/C=N/NS(=O)(=O)c2ccc(C)cc2)=C\c2ccc(Cl)cc2)cc1 | 12.6
85 | CC(C)(C)c1cc(C(P(=O)(c2ccccc2)c2ccccc2)P(=O)(c2ccccc2)c2ccccc2)cc(C(C)(C)C)c1O | > 8.8
86 | CC(C)(C)C(=O)OCC1CCC[N+]2(C)CCCCC12 (stereo not given) | > 100
87 | NS(=O)(=O)c1nn2c(Br)c(-c3ccccc3)nc2s1 | 16
88 | CCN(CC)c1c(N(CC)CC)c(=O)c1=O | 29.5
89 | CN(C)Cc1cc(C(=O)/C=C/c2ccc(Cl)cc2)cc(CN(C)C)c1O | 39.6
90 | O=[N+]([O-])c1ccc(Cl)c(C=NC23CC4CC(CC(C4)C2)C3)c1 | > 10
